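In this assay, cells in 96-well plates receive the compound at five concentrations for 48 hours. Endpoints are linearly interpolated between the surrounding concentrations. Abbreviation: GI50, concentration required for 50% inhibition of growth. TGI denotes the concentration required for complete inhibition of growth.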
Assays:
Experiment in all cases: NCI-60 cell line screen, 48 h
[1] = tested on: BT-549 breast
[2] = tested on: COLO 205 colon
[3] = tested on: DU-145 prostate
[4] = tested on: HOP-62 NSCLC
[5] = tested on: HOP-92 NSCLC
[6] = tested on: HS 578T breast
[7] = tested on: NCI-H460 lung
[8] = tested on: OVCAR-4 ovarian
[9] = tested on: OVCAR-8 ovarian
[10] = tested on: SK-MEL-28 melanoma
[11] = tested on: SNB-19 CNS
[12] = tested on: SNB-75 CNS
[13] = tested on: TK-10 renal
[14] = tested on: U251 CNS
[15] = tested on: UACC-62 melanoma
[16] = tested on: UO-31 renal
[17] = tested on: CAKI-1 renal

Row | Structure (SMILES) | TGI [1] [µM] | TGI [2] [µM] | TGI [3] [µM] | TGI [4] [µM] | TGI [5] [µM] | TGI [6] [µM] | TGI [7] [µM] | TGI [8] [µM] | TGI [9] [µM] | TGI [10] [µM] | TGI [11] [µM] | TGI [12] [µM] | TGI [13] [µM] | TGI [14] [µM] | TGI [15] [µM] | TGI [16] [µM] | TGI [17] [µM] | GI50 [3] [µM] | GI50 [4] [µM] | GI50 [15] [µM]
1 | CCOC(=O)C1(Cc2ccccc2)Cc2cc3c(cc2C1=O)CCC3 (stereo unspecified) | > 100 | > 100 | > 100 | > 100 | > 100 | > 100 | > 100 | > 100 | > 100 | > 100 | > 100 | > 100 | > 100 | > 100 | > 100 | > 100 |  |  |  | 
2 | Cn1c(=O)oc2cc(C(=S)N3CCC(Cc4ccccc4)CC3)ccc21 | > 100 | > 100 | > 100 | > 100 |  | > 100 | > 100 |  | > 100 | > 100 | > 100 | > 100 | > 100 | > 100 | > 100 |  | > 100 |  |  | 
3 | OC(c1ccc(F)cc1)C(F)(F)c1nc(-c2ccccc2)no1 (stereo unspecified) | 36.8 |  | 50.4 |  | 91.9 | 63.9 | 74.7 | 41.5 | > 100 | > 100 | 64.2 |  | > 100 | 29.2 | 37.7 | 35.4 | 72.1 |  |  | 
4 | CCOC(=O)N1CC2(C(=O)OC)C=CC1C(C(=O)OC)C2 (stereo unspecified) | > 100 | > 100 | > 100 | > 100 |  | > 100 | > 100 | > 100 | > 100 | > 100 | > 100 | > 100 | > 100 | > 100 | > 100 | > 100 | > 100 |  |  | 
5 | Oc1ccc(-c2c3ccccc3c(-c3ccc(OCCBr)cc3)c3ccccc23)cc1 | 57.4 | 96.9 | > 100 | 50.6 |  | 82.2 | > 100 | 58.3 | 64 | 51 | 84.3 | 60.9 | 99.2 | 53.3 | 42.1 | > 100 | 67.1 |  |  | 
6 | O=C(O)CN1CCNCCN(CC(=O)O)CCNCC1 | > 100 | > 36.4 | > 100 | > 100 | > 100 | > 100 | > 50.5 | > 100 | > 100 |  | > 100 | 98.9 | > 100 | > 100 | > 100 | > 100 | > 100 |  |  | 
7 | O=C(CC(=O)N(C(=O)c1ccccc1)c1ccc(Cl)cc1)N/N=C\c1ccccc1O | > 100 | > 100 | > 100 | 89.2 | 75 | 81.3 | > 100 | > 100 | > 100 | > 100 | > 100 | 67.4 | > 100 | > 100 |  | > 100 | > 100 |  |  | 
8 | CC1CC(=O)N2CCCNC2=C1C#N (stereo unspecified) | > 100 | > 100 | > 100 | > 100 |  | > 100 | > 100 | > 100 | > 100 | > 100 | > 100 | > 100 | > 100 | > 100 | > 100 | > 100 | > 100 |  |  | 
9 | CCCCOP(=O)(OCCCC)/C(C#N)=C/c1ccc(C)o1 | 43 | > 100 | > 100 | > 100 | 79.6 | > 100 | > 100 | > 100 | > 100 | > 100 | > 100 | > 100 | > 100 | > 100 | > 100 |  | > 100 |  |  | 
10 | CC1(C)CC(=O)C(CC(C(=O)C(=O)Nc2cc(C(F)(F)F)ccc2Cl)C(=O)c2ccco2)C(=O)C1 (stereo unspecified) | > 100 | > 100 | > 100 |  | > 100 | > 100 | > 100 | > 100 | > 100 | > 100 | > 100 |  | > 100 | > 100 | > 100 | > 100 | > 100 |  |  | 
11 | COc1ccc(C2=NN(C(=O)c3ccccc3)C(O)(c3cc(F)c(Cl)cc3Cl)C2)cc1OC (stereo unspecified) | > 100 | > 100 | > 100 | 43 | 78.9 | > 100 | > 100 | 53.1 | > 100 | > 100 | > 100 |  | 98.1 | > 100 | > 100 | 89.4 | > 100 |  |  | 
12 | COC(=O)C1=C(C(=O)OC)SC(=C2c3ccsc3-c3sccc32)S1 | > 100 | > 100 | > 100 | 55.1 |  | 52 | > 100 |  | > 100 | > 100 | > 100 | 35.6 | 57.8 | 98.5 | > 100 | > 100 | > 100 |  |  | 
13 | CC(=O)c1c2c(cc3c1CC1(Cc4cc5c(cc4C1=O)CCC5)C3)CCC2 (stereo unspecified) | > 100 | > 100 | > 100 | > 100 |  | > 100 | > 100 | > 100 | > 100 | > 100 | > 100 | > 100 | > 100 | > 100 | > 100 | > 100 | > 100 |  |  | 
14 | O=C1C=C(c2c(-c3ccccc3)[nH]c3ccccc23)C(=O)N1c1ccccc1 | 24.1 | 24.5 | 15.7 | 1.06 | 30.6 | 52.8 | 35.3 |  | 20.8 | 68.7 | 66.1 |  | 30.3 | 26.8 | 27.9 | 28.9 | 25.7 |  |  | 
15 | CC(C)(C)[Si](C)(C)OCC1OC(n2cc(F)c(=O)[nH]c2=O)CC1O[Si](C)(C)C(C)(C)C (stereo unspecified) | 17 | 19.5 | 11.3 | 30 |  | 26.4 | 15.7 | 17.4 | 35.7 |  | 25.3 | 15.9 | 13.9 | 22.5 | 15.7 | 23 | 25.6 |  |  | 
16 | CC1=NN(c2nc(N)nc(C(C)Sc3cc(Cl)c(C)cc3S(N)(=O)=O)n2)C(C)(C)C1 (stereo unspecified) | > 10 | > 10 | > 10 | > 10 | > 10 | > 10 | > 10 | > 10 | > 10 | > 10 | > 10 | > 10 | > 10 | > 10 |  | > 10 | > 10 |  |  | 
17 | CCCCCCNC(=O)c1cc(C#Cc2cc(OC)ccc2OC)ccc1OC | > 100 | > 100 | > 100 | > 100 | > 100 | > 100 | > 100 | > 100 | > 100 | > 100 | > 100 |  | > 100 | > 100 | > 100 | > 100 | > 100 | > 100 | 11.8 | 56.8
18 | COc1cc(COC(=O)N2CCCCC2C(=O)O)c([N+](=O)[O-])cc1OC (stereo unspecified) | > 100 | > 100 | > 100 | > 100 | > 100 | > 100 | > 100 |  | > 100 | > 100 | > 100 | > 100 | > 100 | > 100 | > 100 | > 100 |  |  |  | 
19 | Cn1c(=O)cc(NNc2ccc(Br)cc2)[nH]c1=O | 30.6 | 13.7 | 19.3 | 29.5 | 27.7 | 9.34 | 19.3 | 30.3 | 41.4 | 34.7 | 26.5 |  | 34.9 | 10 |  | 30 |  |  |  | 
20 | O=c1[nH]c(=O)n(C2CC(O)C(COP(=O)(O)OC3CC(n4cc(F)c(=O)[nH]c4=O)OC3COP(=O)(O)OC3CC(n4cc(F)c(=O)[nH]c4=O)OC3COP(=O)(O)OC3CC(n4cc(F)c(=O)[nH]c4=O)OC3COP(=O)(O)OC3CC(n4cc(F)c(=O)[nH]c4=O)OC3COP(=O)(O)OC3CC(n4cc(F)c(=O)[nH]c4=O)OC3COP(=O)(O)OC3CC(n4cc(F)c(=O)[nH]c4=O)OC3COP(=O)(O)OC3CC(n4cc(F)c(=O)[nH]c4=O)OC3COP(=O)(O)OC3CC(n4cc(F)c(=O)[nH]c4=O)OC3COP(=O)(O)OC3CC(n4cc(F)c(=O)[nH]c4=O)OC3CO)O2)cc1F (stereo unspecified) | > 50 | > 50 | > 50 | > 50 | > 50 | > 50 |  | > 50 | > 50 | > 50 | > 50 | > 50 | > 50 | > 50 |  | > 50 | > 50 |  |  | 
21 | O=C(Cn1c(C(=O)/C=C/c2ccco2)nc2ccccc21)c1ccc(Cl)cc1 | 42.9 | 49.2 | > 100 | > 100 | > 100 | 24.6 | 27.2 | 65 |  | > 100 | > 100 | > 100 | 85.8 | > 100 | > 100 | 94.3 |  |  |  | 

Source: PubChem BioAssay (NCI)
